From ChEMBL document CHEMBL1933021, “Novel and selective spiroindoline-based inhibitors of Sky kinase” (Bioorg Med Chem Lett, 2012)
Values after ≈ are worked out from the molar mass of the structure shown. Active and inactive are the calls of the source. The calls are words filed in the database; no cut-off is given here.

Tests used:
Tyro3 (Mus musculus) = assay: Inhibition of mouse Sky kinase assessed as inhibition of src substrate phosphorylation by ELISA
Rattus norvegicus = assay: Volume of distribution at steady state in po dosed Sprague-Dawley rat; format: ADME, organism-based; conditions: in vivo
[1] = Permeability of the compound by PAMPA assay; format: ADME; conditions: read-out: permeability
[2] = Half life in human liver microsomes; format: ADME, Microsome
[3] = Half life in po dosed Sprague-Dawley rat; format: ADME, organism-based; conditions: in vivo
[4] = Clearance in po dosed Sprague-Dawley rat; format: ADME, organism-based; conditions: in vivo
[5] = Aqueous solubility of compound at pH 6.5; format: physicochemical
[6] = Oral bioavailability in Sprague-Dawley rat; format: ADME, organism-based; conditions: in vivo
Cytochrome P450 2D6 = Cytochrome P450 2D6 (Homo sapiens, UniProt P10635); assay: Inhibition of CYP2D6 using dextromethorphan as substrate; format: ADME
Sequence of Cytochrome P450 2D6 (P10635 whole entry): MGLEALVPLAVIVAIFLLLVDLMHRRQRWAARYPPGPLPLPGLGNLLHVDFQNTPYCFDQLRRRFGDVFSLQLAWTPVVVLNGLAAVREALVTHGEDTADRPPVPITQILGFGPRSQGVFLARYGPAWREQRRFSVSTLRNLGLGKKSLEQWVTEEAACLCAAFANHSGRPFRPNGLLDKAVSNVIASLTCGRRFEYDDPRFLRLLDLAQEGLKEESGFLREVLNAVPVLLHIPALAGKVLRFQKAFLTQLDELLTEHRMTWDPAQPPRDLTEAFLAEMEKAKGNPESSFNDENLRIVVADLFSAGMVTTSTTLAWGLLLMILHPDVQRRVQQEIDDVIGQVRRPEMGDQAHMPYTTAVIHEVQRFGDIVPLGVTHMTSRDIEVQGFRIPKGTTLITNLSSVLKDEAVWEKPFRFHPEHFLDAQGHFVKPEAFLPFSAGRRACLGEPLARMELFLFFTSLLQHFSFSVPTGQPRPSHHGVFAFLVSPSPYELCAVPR

| inhibition (Tyro3 (Mus musculus)) | SMILES | other results |
| --- | --- | --- |
| Active | COc1ccc2[nH]c(C(=O)N3C[C@@]4(CCN(C5CCNC5)C4)c4ccccc43)cc2c1 (stereo partly specified) | – |
| Active | COc1ccc2cc(C(=O)N3C[C@@]4(CCN(C5CCNC5)C4)c4ccccc43)[nH]c2c1 (stereo partly specified) | – |
| Active | O=C(c1cc2cc(Cl)ccc2[nH]1)N1C[C@@]2(CCN(C3CCCNC3)C2)c2ccccc21 (stereo partly specified) | – |
| Active | NC(=O)c1ccc2cc(C(=O)N3C[C@@]4(CCN(C5CCNC5)C4)c4ccccc43)[nH]c2c1 (stereo partly specified) | – |
| Active | O=C(c1cc2cc(Cl)ccc2[nH]1)N1C[C@@]2(CCN(C3CCNC3)C2)c2ccccc21 (stereo partly specified) | – |
| Active | Cc1ccc2[nH]c(C(=O)N3C[C@@]4(CCN(C5CCNC5)C4)c4ccccc43)cc2c1 (stereo partly specified) | – |

The remaining lines, values behind:

| SMILES | inhibition (Tyro3 (Mus musculus)) | other results |
| --- | --- | --- |
| O=C(c1cc2cc(F)ccc2[nH]1)N1C[C@@]2(CCN(C3CNC3)C2)c2ccccc21 | Active | – |
| O=C(c1cc2cc(Cl)ccc2[nH]1)N1C[C@@]2(CCN(C3CCNCC3)C2)c2ccccc21 | Active | – |
| O=C(c1cc2cc(F)ccc2[nH]1)N1C[C@@]2(CCN(C3CCCCC3)C2)c2ccccc21 | Active | – |
| Cc1ccc(N2CC[C@]3(C2)CN(C(=O)c2cc4cc(F)ccc4[nH]2)c2ccccc23)cn1 | Active | – |
| O=C(c1cc2cc(Cl)ccc2[nH]1)N1C[C@]2(CCN(C3CCNC3)C2)c2ccccc21 (stereo partly specified) | – | Vdss (Rattus norvegicus): 13 L/kg; Papp [1]: 0.03 ×10⁻⁶ cm/s; half-life [2]: 1 h; half-life [3]: 3.1 h; CL/F [4]: 60 mL/min/kg; solubility [5]: 5.2 µM (≈ 2.19 µg/mL); bioavailability [6]: 14%; IC50 (Cytochrome P450 2D6): 14 nM |
| O=C(c1cc2c(Cl)cccc2[nH]1)N1C[C@@]2(CCN(C3CCNC3)C2)c2ccccc21 (stereo partly specified) | Active | – |
| O=C(c1cc2cc(F)ccc2[nH]1)N1C[C@@]2(CCN(CC3CCCNC3)C2)c2ccccc21 (stereo partly specified) | Active | – |
| CCN1CCCC(N2CC[C@@]3(CN(C(=O)c4cc5cc(F)ccc5[nH]4)c4ccccc43)C2)C1 (stereo partly specified) | Active | – |
